Experimental data: paper PMC6698794, “Catalytic Knockdown of miR-21 by Artificial Ribonuclease: Biological Performance in Tumor Model” (Frontiers in Pharmacology, 2019)
“And” between values parts separate entries of the source, which are not always exact repeats. Identical values can stand only once.

What was measured:
[1] = test system: RLS40 lymphosarcoma; assay: Hepatic index of mice implanted with treated RLS40 cells; format: in vivo; conditions: cells treated with 1 µM; (liver weight/mouse weight) × 100%; 5.0% for healthy CBA mice; Mean ± SE
Procedure: (§1) RLS40 ascites were taken from CBA mice intraperitoneally injected with tumor cells (2 × 10^6 in 0.2 ml buffered saline) into their abdominal cavities. RLS40 cells, isolated from ascites fluid by filtration through LSM were divided into seven portions: 1) untreated cells; 2) the cells incubated with Lipofectamine; the cells transfected with 1 µM of 3) h-ODN, 4) 2′-OMe, 5) Inh, 6) miR-21-miRNase, or 7) luc-POC each. After 4 h of transfection, cell suspensions (0.1 ml, 2 × 10^6 cells) were intramuscularly inoculated into the right lower limb of CBA mice for solid tumor development. As soon as tumors began to be palpable, the tumor volumes were measured every 2–3 days using calipers. Tumor volumes were calculated as V = (π/6 × length × width × height). Hepatic index was estimated as (liver weight/mouse weight) × 100% and as 5.0% for healthy CBA mice. Tumor doubling time (DT) was estimated as DT = (t − t0) × ln 2/(ln V − ln V0), where (t − t0) indicates the length of time between two measurements of tumor size and V0 and V denote the tumor volume at two points of the measurement ([Ozono et al., 2004]).
Supplementary Table 2. Hepatic indexes of mice implanted with RLS40 treated with antisense
oligonucleotides, control luc-POC and miR-21-miRNase
Type of treatment Hepatic index, %* p-value (vs control)
* – Mean ± SE; s.i. – statistically insignificant
Hepatic index was estimated as (liver weight/mouse weight) × 100% and as 5.0% for healthy CBA
The MDR status of RLS40 may add to the burden on the liver, when this type of tumor
metastasizes into the liver (Sen’kova et al., 2012). Ex vivo treatment of RLS40 cells by
oligonucleotides and miRNase avoids the toxic effect of antisense oligonucleotides, their conjugates
and transfection reagents directly on the tumor-bearing animal. This may allow consideration of
whether the decrease of migration activity of tumor cells translated into reduced metastatic burden of
RLS40 on the liver. Treatment of the cells seeding the tumor may not reduce migration and […]

[2] = test system: RLS40 lymphosarcoma; assay: Tumor transplantation assay: RLS40 cells treated ex vivo, then inoculated intramuscularly; format: in vivo, CBA mice; conditions: for Tumor doubling time, DT: DT = (t − t0) × ln 2/(ln V − ln V0)
Procedure: as §1
Figure 3 Antitumor effect of miR-21-specific miRNase. (A) Retardation of RLS40 growth in vivo after treatment of RLS40 cells with antisense oligonucleotides, control conjugate (luc-POC), or miR-21-miRNase. (B) Tumor volume on day 19 after RLS40 transplantation. Mice were injected with RLS40 cells either without any treatment (w/t) or treated with Lipofectamine (LF), commercial miR-21 inhibitor at concentration 0.1 µM (Inh 0.1, recommended) and 1 µM (Inh 1, in accordance to concentration of miRNase used in the study), control conjugate (luc-POC, 1 µM), hairpin 2′OMe oligonucleotide (2′-OMe, 1 µM), hairpin antisense oligonucleotide (h-ODN, 1 µM) or miR-21-specific miRNase (miR-21-miRNase, 1 µM). Data were statistically analyzed using two-way ANOVA with post hoc Tukey test. Data are presented as mean ± s.e. p-value indicates a statistically reliable difference. (C) Doubling time of RLS40 tumors after treatment with oligonucleotides and conjugates. TEXT PRINTED IN THE PICTURE: (C) untreated: DT, days: 2,45±0,49 | (C) LF: DT, days: 2,48±0,35 | (C) Inh 0.1: DT, days: 2,56±0,59 | (C) Inh 1: DT, days: 13,90±0,46 | (C) 2’-OMe: DT, days: 3,17±1,45 | (C) luc-POC: DT, days: 2,40±0,45 | (C) h-ODN: DT, days: 3,00±1,83 | (C) miR-21-miRNase: DT, days: 12,77±0,34

[3] = Nuclease resistance assay in DMEM with 10% fetal bovine serum; format: in vitro ADME; conditions: 0.1 µg/µl, DMEM with 10% FBS, 37°C; 12% PAAG/8M urea gel, Stains-All
Procedure: Oligonucleotides or conjugates (0.1 µg/µl) were incubated at 37°C in Dulbecco’s Modified Eagle Medium (DMEM) (Sigma, USA) with 10% fetal bovine serum (FBS; GE Healthcare, USA). Reactions were quenched in urea (8M) and immediately frozen in liquid nitrogen, prior to analysis of thawed samples in 12% PAAG/8M urea gels, using Tris-Borate-EDTA (TBE) as running buffer, Stains-All (MP Biomedicals, USA) and photographic gel documentation (VilberLourmat, France).

[4] = test system: PTEN; assay: PTEN protein level in transfected RLS40 cells by Western blot; format: cell-based, mouse; conditions: 1 µM, 72 h after transfection, GAPDH internal control
Procedure: as §1
(§2) Supplementary Figure 3. Expression level of miR-21 and PTEN and PDCD4 protein level in RLS40 cells after transfection with 1 µM of luc-POC or miR-21-miRNase using LipofectamineTM 2000. (A) Expression level of miR-21 24 h after transfection. The expression of miRNAs was normalized to U6. […]

[5] = test system: PDCD4; assay: PDCD4 protein level in transfected RLS40 cells by Western blot; format: cell-based, mouse; conditions: 1 µM, 72 h after transfection, GAPDH internal control
Procedure: as §1, §2

[6] = test system: miR-21; assay: miR-21 level in transfected RLS40 cells by PCR analysis; format: cell-based, mouse
Procedure: as §1, §2

[7] = test system: lymphosarcoma cells; conditions: ref Patutina et al., 2017a; cited from earlier work
Excerpt: Short functional non-coding microRNAs are implicated in many types of cancer ([Frixa et al., 2015]; [O’Bryan et al., 2017]; [Zhou et al., 2017]). Amongst many miRNAs identified as important inducers of oncogenesis, miR-21 represents an extreme oncomiR, which is strongly involved in tumor onset and progression for many types of malignancies ([Huang et al., 2013]; [Lianidou et al., 2016]; [Yu et al., 2018]). Since miR-21 is abnormally overexpressed in major types of tumors, this oncomiR is the most considered target for anti-miRNA inhibitory studies. However, depending on the origin of tissue an ...

[8] = cells treated with 1 µM before transplantation

| Substance | Hepatic index [1] [%] | Retardation of tumor growth, mean tumor volume times less than in the control group ([2]; cells transfected once with 1 µM for 4 h, 2 × 10^6 cells i.m. into CBA mice, day 19) | Tumor doubling time against w/t (in words) [2, 8] | Tumor doubling time, DT [2, 8] | Survival (intact) in serum-containing medium [3] | Increase in PTEN protein level [4] [fold] | Increase in PDCD4 protein level [5] [fold] | Increase of tumor doubling time over untreated control (w/t) [2, 8] [fold] | Decrease in miR-21 level ([6]; RLS40 cells, 1 µM, 24 h after transfection, normalized to U6) [fold] | Reduction in miR-21 level ([6]; single treatment of tumor cells prior to transplantation) [%] | Inhibition of tumor cell proliferation [7] [%] |
| --- | --- | --- | --- | --- | --- | --- | --- | --- | --- | --- | --- |
| h-ODN: miR-21-targeted hairpin deoxyribooligonucleotide AGTCTGATAAGCTACAAGTCAGCGAAAGCTGACTTG, unconjugated with the peptide (DNA, backbone and methylation of C not given here; hairpin at 3' end, unconjugated) | 5.23±0.17 | about 2 fold | did not show a statistically significant difference | 3,00±1,83 days | a few hours |  |  |  |  |  |  |
| acetyl-[(LeuArg)2Gly]2-aminohexyl-AGTCTGATAAGCTACAAGTCAGCGAAAGCTGACTTG [miR-21-miRNase, peptide acetyl-[(LeuArg)2Gly]2 conjugated through aminohexyl linker to 5′-end of miR-21-targeted hairpin oligodeoxyribonucleotide] | 5.1±0.16 |  |  | 12,77±0,34 days and 12.77 days |  | 1.7 | 2.4 | > 5 | 2 | 50 | 50 |
